Test results from patent publication US20070128217A1 (priority 2003, published 2007).

Tests used:
[1] = tested on: antibodies in sera from SARS patients (sera 1a, 1b, 2, 6, 37, 62, London, SARS-yellow, SARS-green); format: binding, human; design: Binding of serum 6 to linear peptides of protein X1 of SARS-CoV Urbani / Binding of serum 37 to linear peptides of protein X1 of SARS-CoV Urbani / Binding of serum 6 to looped/cyclic peptide (PEPSCAN-ELISA) / Binding of serum 37 to looped/cyclic peptide (PEPSCAN-ELISA) / Binding of serum 37 to looped/cyclic peptides of protein X1 of SARS-CoV Urbani / Binding of serum 6 to linear peptides of protein X2 / Binding of serum 37 to linear peptides of protein X2 / Binding of serum 37 to looped/cyclic peptides of protein X2 of SARS-CoV Urbani / Binding of serum 6 to linear peptides of protein M of SARS-CoV Urbani / Binding of serum 37 to linear peptides of protein M of SARS-CoV Urbani / Binding of serum 6 to looped/cyclic peptides of protein M of SARS-CoV Urbani / Binding of serum 37 to looped/cyclic peptides of protein M of SARS-CoV Urbani / Binding of serum 6 to linear peptides of protein X3 of SARS-CoV Urbani / Binding of serum 37 to linear peptides of protein X3 of SARS-CoV Urbani / Binding of serum 37 to looped/cyclic peptides of protein X3 of SARS-CoV Urbani / Binding of serum 6 to linear peptides of protein X4 of SARS-CoV Urbani / Binding of serum 37 to linear peptides of protein X4 of SARS-CoV Urbani / Binding of serum 37 to looped/cyclic peptides of protein X4 of SARS-CoV Urbani / Binding of serum 6 to linear peptides of protein X5 of SARS-CoV Urbani / Binding of serum 37 to linear peptides of protein X5 of SARS-CoV Urbani / Binding of serum 37 to looped/cyclic peptides of protein X5 of SARS-CoV Urbani / Binding of serum 6 to linear peptides of protein N of SARS-CoV Urbani / Binding of serum 37 to linear peptides of protein N of SARS-CoV Urbani / Binding of serum 6 to linear peptide (PEPSCAN-ELISA) / Binding of serum 1a to looped/cyclic peptides of protein N of SARS-CoV Urbani / Binding of serum 1b to looped/cyclic peptides of protein N of SARS-CoV Urbani / Binding of serum 2 to looped/cyclic peptides of protein N of SARS-CoV Urbani / Binding of serum 6 to looped/cyclic peptides of protein N of SARS-CoV Urbani / Binding of serum 37 to looped/cyclic peptides of protein N of SARS-CoV Urbani / Binding of serum 62 to looped/cyclic peptides of protein N of SARS-CoV Urbani / Binding of serum London to looped/cyclic peptides of protein N of SARS-CoV Urbani / Binding of serum SARS-green to looped/cyclic peptides of protein N of SARS-CoV Urbani: unit not given here
[2] = tested on: control sera (pooled serum of ten healthy LUMC hospital workers; commercial negative donor pooled serum from the Dutch bloodbank); format: binding, human; design: Binding of Control serum LUMC to linear peptides / Binding of Control serum Blood-bank to linear peptides / Binding of Control serum LUMC to looped peptides / Binding of Control Serum Blood-Bank to Looped peptides / Binding of Control serum LUMC to linear peptides of the protein M of SARS-CoV Urbani / Binding of Control serum Blood-bank to linear peptides of the protein M of SARS-CoV Urbani / Binding of Control serum LUMC to looped peptides of the protein M of SARS-CoV Urbani / Binding of Control Serum Blood-Bank to Looped peptides of the protein M of SARS-CoV Urbani: unit not given here
[3] = tested on: rabbit serum obtained by immunizing a rabbit with the SARS-CoV strain Frankfurt 1; format: binding; design: Binding of a rabbit serum to linear peptides / Binding of a rabbit serum to looped peptides / Rabbit serum linear peptides / Rabbit serum looped peptides / Binding of a rabbit serum to linear peptides of protein N of SARS-CoV Urbani (Rabbit serum linear peptides) / Binding of a rabbit serum to looped/cyclic peptides of protein N of SARS-CoV Urbani (Rabbit serum looped peptides): unit not given here

## AVYRINWVTGGIAIA
[1]
  Binding of serum 1a to linear peptides of protein M of SARS-CoV Urbani: 0.7
  Binding of serum 1a to looped/cyclic peptides of protein M of SARS-CoV Urbani: 0.8
  Binding of serum 1b to linear peptides of protein M of SARS-CoV Urbani: 0.6
  Binding of serum 1b to looped/cyclic peptides of protein M of SARS-CoV Urbani: 0.4
  Binding of serum 2 to linear peptides of protein M of SARS-CoV Urbani: 0.6
  Binding of serum 2 to looped/cyclic peptides of protein M of SARS-CoV Urbani: 0.6
  Binding of serum 6 to linear peptides of protein M of SARS-CoV Urbani: 0.2
  Binding of serum 6 to looped/cyclic peptides of protein M of SARS-CoV Urbani: 0.6
  Binding of serum 37 to linear peptides of protein M of SARS-CoV Urbani: 0.8
  Binding of serum 37 to looped/cyclic peptides of protein M of SARS-CoV Urbani: 0.7
  Binding of serum 62 to linear peptides of protein M of SARS-CoV Urbani: 0.8
  Binding of serum 62 to looped/cyclic peptides of protein M of SARS-CoV Urbani: 0.7
  Binding of serum London to linear peptides of protein M of SARS-CoV Urbani: 0.3
  Binding of serum London to looped/cyclic peptides of protein M of SARS-CoV Urbani: 0.2
  Binding of serum SARS-green to linear peptides of protein M of SARS-CoV Urbani: 0.3
  Binding of serum SARS-green to looped/cyclic peptides of protein M of SARS-CoV Urbani: 0.4
  Binding of serum SARS-yellow to linear peptides of protein M of SARS-CoV Urbani: 0.1
  Binding of serum SARS-yellow to looped/cyclic peptides of protein M of SARS-CoV Urbani: 0.7
[2]
  Binding of Control Serum Blood-Bank to Looped peptides of the protein M of SARS-CoV Urbani: 0.8
  Binding of Control serum Blood-bank to linear peptides of the protein M of SARS-CoV Urbani: 0.7
  Binding of Control serum LUMC to linear peptides of the protein M of SARS-CoV Urbani: 0.5
  Binding of Control serum LUMC to looped peptides of the protein M of SARS-CoV Urbani: 0.8
[3]
  Rabbit serum linear peptides: 0.4
  Rabbit serum looped peptides: 0.5

## AWIMLLQFAYSNRNR
[1]
  Binding of serum 1a to linear peptides of protein M of SARS-CoV Urbani: 0.7
  Binding of serum 1a to looped/cyclic peptides of protein M of SARS-CoV Urbani: 0.7
  Binding of serum 1b to linear peptides of protein M of SARS-CoV Urbani: 0.6
  Binding of serum 1b to looped/cyclic peptides of protein M of SARS-CoV Urbani: 0.7
  Binding of serum 2 to linear peptides of protein M of SARS-CoV Urbani: 0.5
  Binding of serum 2 to looped/cyclic peptides of protein M of SARS-CoV Urbani: 0.6
  Binding of serum 6 to linear peptides of protein M of SARS-CoV Urbani: 0.5
  Binding of serum 6 to looped/cyclic peptides of protein M of SARS-CoV Urbani: 1.1
  Binding of serum 37 to linear peptides of protein M of SARS-CoV Urbani: 0.4
  Binding of serum 37 to looped/cyclic peptides of protein M of SARS-CoV Urbani: 0.6
  Binding of serum 62 to linear peptides of protein M of SARS-CoV Urbani: 0.4
  Binding of serum 62 to looped/cyclic peptides of protein M of SARS-CoV Urbani: 0.6
  Binding of serum London to linear peptides of protein M of SARS-CoV Urbani: 0.3
  Binding of serum London to looped/cyclic peptides of protein M of SARS-CoV Urbani: 0.6
  Binding of serum SARS-green to linear peptides of protein M of SARS-CoV Urbani: 0.6
  Binding of serum SARS-green to looped/cyclic peptides of protein M of SARS-CoV Urbani: 0.4
  Binding of serum SARS-yellow to linear peptides of protein M of SARS-CoV Urbani: 0.2
  Binding of serum SARS-yellow to looped/cyclic peptides of protein M of SARS-CoV Urbani: 0.7
[2]
  Binding of Control Serum Blood-Bank to Looped peptides of the protein M of SARS-CoV Urbani: 0.7
  Binding of Control serum Blood-bank to linear peptides of the protein M of SARS-CoV Urbani: 0.7
  Binding of Control serum LUMC to linear peptides of the protein M of SARS-CoV Urbani: 0.5
  Binding of Control serum LUMC to looped peptides of the protein M of SARS-CoV Urbani: 0.7
[3]
  Rabbit serum linear peptides: 0.3
  Rabbit serum looped peptides: 0.4

## AWLCALGKVLPFHRW
[1]
  Binding of serum 1a to linear peptides of protein X5 of SARS-CoV Urbani: 0.8
  Binding of serum 1a to looped/cyclic peptides of protein X5 of SARS-CoV Urbani: 0.4
  Binding of serum 1b to linear peptides of protein X5 of SARS-CoV Urbani: 0.6
  Binding of serum 1b to looped/cyclic peptides of protein X5 of SARS-CoV Urbani: 0.3
  Binding of serum 2 to linear peptides of protein X5 of SARS-CoV Urbani: 0.8
  Binding of serum 2 to looped/cyclic peptides of protein X5 of SARS-CoV Urbani: 0.5
  Binding of serum 6 to linear peptides of protein X5 of SARS-CoV Urbani: 0.6
  Binding of serum 6 to looped/cyclic peptides of protein X5 of SARS-CoV Urbani: 0.4
  Binding of serum 37 to linear peptides of protein X5 of SARS-CoV Urbani: 0.8
  Binding of serum 37 to looped/cyclic peptides of protein X5 of SARS-CoV Urbani: 0.5
  Binding of serum 62 to linear peptides of protein X5 of SARS-CoV Urbani: 0.9
  Binding of serum 62 to looped/cyclic peptides of protein X5 of SARS-CoV Urbani: 0.7
  Binding of serum London to linear peptides of protein X5 of SARS-CoV Urbani: 0.8
  Binding of serum London to looped/cyclic peptides of protein X5 of SARS-CoV Urbani: 0.2
  Binding of serum SARS-green to linear peptides of protein X5 of SARS-CoV Urbani: 0.6
  Binding of serum SARS-green to looped/cyclic peptides of protein X5 of SARS-CoV Urbani: 0.5
  Binding of serum SARS-yellow to linear peptides of protein X5 of SARS-CoV Urbani: 0.2
  Binding of serum SARS-yellow to looped/cyclic peptides of protein X5 of SARS-CoV Urbani: 0.5
[2]
  Binding of Control Serum Blood-Bank to Looped peptides: 0.4
  Binding of Control serum Blood-bank to linear peptides: 0.9
  Binding of Control serum LUMC to linear peptides: 0.6
  Binding of Control serum LUMC to looped peptides: 0.5
[3]
  Rabbit serum linear peptides: 0.8
  Rabbit serum looped peptides: 0.6

## AYNRYRIGNYKLNTD
[1]
  Binding of serum 1a to linear peptides of protein M of SARS-CoV Urbani: 0.7
  Binding of serum 1a to looped/cyclic peptides of protein M of SARS-CoV Urbani: 0.8
  Binding of serum 1b to linear peptides of protein M of SARS-CoV Urbani: 0.2
  Binding of serum 1b to looped/cyclic peptides of protein M of SARS-CoV Urbani: 0.7
  Binding of serum 2 to linear peptides of protein M of SARS-CoV Urbani: 0.3
  Binding of serum 2 to looped/cyclic peptides of protein M of SARS-CoV Urbani: 0.5
  Binding of serum 6 to linear peptides of protein M of SARS-CoV Urbani: 0.4
  Binding of serum 6 to looped/cyclic peptides of protein M of SARS-CoV Urbani: 1.0
  Binding of serum 37 to linear peptides of protein M of SARS-CoV Urbani: 0.5
  Binding of serum 37 to looped/cyclic peptides of protein M of SARS-CoV Urbani: 0.6
  Binding of serum 62 to linear peptides of protein M of SARS-CoV Urbani: 0.7
  Binding of serum 62 to looped/cyclic peptides of protein M of SARS-CoV Urbani: 0.6
  Binding of serum London to linear peptides of protein M of SARS-CoV Urbani: 0.5
  Binding of serum London to looped/cyclic peptides of protein M of SARS-CoV Urbani: 0.4
  Binding of serum SARS-green to linear peptides of protein M of SARS-CoV Urbani: 0.2
  Binding of serum SARS-green to looped/cyclic peptides of protein M of SARS-CoV Urbani: 0.2
  Binding of serum SARS-yellow to linear peptides of protein M of SARS-CoV Urbani: 0.0
  Binding of serum SARS-yellow to looped/cyclic peptides of protein M of SARS-CoV Urbani: 0.6
[2]
  Binding of Control Serum Blood-Bank to Looped peptides of the protein M of SARS-CoV Urbani: 0.6
  Binding of Control serum Blood-bank to linear peptides of the protein M of SARS-CoV Urbani: 0.6
  Binding of Control serum LUMC to linear peptides of the protein M of SARS-CoV Urbani: 0.3
  Binding of Control serum LUMC to looped peptides of the protein M of SARS-CoV Urbani: 0.7
[3]
  Rabbit serum linear peptides: 0.3
  Rabbit serum looped peptides: 0.3

## AYSNRNRFLYIIKLV
[1]
  Binding of serum 1a to linear peptides of protein M of SARS-CoV Urbani: 0.7
  Binding of serum 1b to linear peptides of protein M of SARS-CoV Urbani: 0.6
  Binding of serum 2 to linear peptides of protein M of SARS-CoV Urbani: 0.6
  Binding of serum 6 to linear peptides of protein M of SARS-CoV Urbani: 0.6
  Binding of serum 37 to linear peptides of protein M of SARS-CoV Urbani: 0.4
  Binding of serum 62 to linear peptides of protein M of SARS-CoV Urbani: 0.5
  Binding of serum London to linear peptides of protein M of SARS-CoV Urbani: 0.3
  Binding of serum SARS-green to linear peptides of protein M of SARS-CoV Urbani: 0.5
  Binding of serum SARS-yellow to linear peptides of protein M of SARS-CoV Urbani: 0.2
  Recognition of the peptide by sera of SARS-CoV infected individuals, and form (linear, looped/cyclic) in which it is recognized: recognized in looped/cyclic form
[2]
  Binding of Control Serum Blood-Bank to Looped peptides of the protein M of SARS-CoV Urbani: 0.6
  Binding of Control serum Blood-bank to linear peptides of the protein M of SARS-CoV Urbani: 0.7
  Binding of Control serum LUMC to linear peptides of the protein M of SARS-CoV Urbani: 0.7
  Binding of Control serum LUMC to looped peptides of the protein M of SARS-CoV Urbani: 0.8
[3]
  Rabbit serum linear peptides: 0.3
  Rabbit serum looped peptides: 0.5
